Results from patent US4416885A, “Use of isopropylaminopyrimidine in the chemotherapy of muscular dystrophy, myopathy and myotonia” (priority 1982, dated 1983).

Columns and labels:
Assay type in all cases: in vivo, chicken
[1] = system: plasma PK (pyruvate kinase); assay: Plasma PK; settings: 300 mg/Kg i.p. three times weekly for 30 days, day 28 ex ovo
[2] = system: dystrophic New Hampshire chickens, line 413; assay: Toxicity (weight change, other symptoms) in dystrophic chickens
Protocol: Weight measurements are taken weekly, weight loss, diarrhea or any other symptoms are noted. No drugs have yet been described for dystrophy with a beneficial effect without an accompanying weight loss.
The drug was administered daily in water, injected intra-peritoneally, the amount being adjusted on a weekly basis according to the animal's weight.

[3] = system: plasma CPK (creatine phosphokinase); assay: Plasma CPK
Protocol: Chemotherapy was assessed by application of seven different parameters: physical tests of muscular disability, namely the flip test and wing apposition (W.A.) measurements; biochemical assays of serum and muscle enzume levels of creatine phosphokinase (CPK), pyruvate kinase (PK) and acetylcholinesterase (AChE); and histological comparisons of treated and untreated muscle. Toxicity studies (weight loss, etc.) were also used. A very comprehensive profile of the drug was thus obtained which related to all the known, highly characteristic features of the disease which are applicable to both the animal model and the human.
Plasma CPK rises dramatically in the dystrophic chicken as it does also in the human disease. The normal chicken has 200-300 U/l CPK, compared to about 20,000 U/l in the untreated dystrophic chicken at its peak. It rises to these high levels over a period of two months and is, therefore, a significant index of the disease. […]
Finally, oral therapy with IAPP was undertaken at gradually increasing dosages up to 1 g/Kg/day. The parameters (physical, biochemical and histological) measured previously were again used to test the efficacy of the drug; five different dosages were used orally, each being given for 30-60 days, daily (Tables VII-XI). A total of 75 animals were treated in the current study with IAPP and 70 control animals were used.

normal chickens 412 = assay: Experiment 4, flip test (25 flips), normal chickens
Protocol: All chickens were injected with 50 mg/Kg IAPP and weighed approximately every second or third day.
B, C, D: Experimental-injected with 50 mg/Kg IAPP

[4] = Exp. 2, 40 mg/Kg i.p. daily, day 7-13
[5] = Exp. 2, 40 mg/Kg i.p. daily, day 14-20
[6] = Exp. 2, 40 mg/Kg i.p. daily, day 21-27
[7] = Exp. 2, 40 mg/Kg i.p. daily, day 28-34
[8] = Exp. 2, 40 mg/Kg i.p. daily, day 35-41
[9] = Exp. 2, 40 mg/Kg i.p. daily, day 42-48
[10] = Exp. 2, 40 mg/Kg i.p. daily, day 56-62
[11] = Exp. 2, 40 mg/Kg i.p. daily, day 63-71
[12] = Exp. 3, 70 mg/Kg i.p. daily, day 21-27
[13] = Exp. 3, 70 mg/Kg i.p. daily, day 28-34
[14] = 200 mg/Kg i.p. daily for 30 days, day 28 ex ovo
[15] = 200 mg/Kg i.p. daily for 30 days, day 45 ex ovo
[16] = 200 mg/Kg i.p. daily for 30 days, day 56 ex ovo
[17] = 200 mg/Kg i.p. daily for 30 days, day 84 ex ovo
[18] = 300 mg/Kg i.p. daily for 30 days, day 28 ex ovo
[19] = 300 mg/Kg i.p. daily for 30 days, day 45 ex ovo
[20] = 300 mg/Kg i.p. daily for 30 days, day 56 ex ovo
[21] = 300 mg/Kg i.p. daily for 30 days, day 84 ex ovo
[22] = 300 mg/Kg i.p. three times weekly for 30 days, day 28 ex ovo
[23] = 300 mg/Kg i.p. three times weekly for 30 days, day 45 ex ovo
[24] = 300 mg/Kg i.p. three times weekly for 30 days, day 84 ex ovo
[25] = Table VII, oral 200 mg/Kg, 60 days, day 28 ex ovo
[26] = Table VII, oral 200 mg/Kg, 60 days, day 35 ex ovo
[27] = Table VII, oral 200 mg/Kg, 60 days, day 45 ex ovo
[28] = Table VII, oral 200 mg/Kg, 60 days, day 60 ex ovo
[29] = oral 300 mg/Kg daily, day 28 ex ovo
[30] = oral 300 mg/Kg daily, day 35 ex ovo
[31] = oral 450 mg/Kg daily for 45 days, day 28 ex ovo
[32] = oral 450 mg/Kg daily for 45 days, day 35 ex ovo
[33] = oral 450 mg/Kg daily for 45 days, day 50 ex ovo
[34] = oral 600 mg/Kg daily, day 28 ex ovo
[35] = oral 600 mg/Kg daily, day 35 ex ovo
[36] = oral 600 mg/Kg daily, day 50 ex ovo
[37] = oral 1 g/Kg daily, day 28 ex ovo
[38] = oral 1 g/Kg daily, day 35 ex ovo

SMILES: CC(C)Nc1ncccn1.O=P(O)(O)O [IAPP, 2-isopropylaminopyrimidine orthophosphate]
- PK [1]: 499
- Weight loss (after 30 days' treatment) ([2]; 200 mg/Kg i.p. daily, level at which it became significant): twenty
- % Weight Change vs untreated dystrophic controls [2, 4]: -0.04%
- % Weight Change vs untreated dystrophic controls [2, 5]: -0.07%
- % Weight Change vs untreated dystrophic controls [2, 6]: -0.07%
- % Weight Change vs untreated dystrophic controls [2, 7]: -0.15%
- % Weight Change vs untreated dystrophic controls [2, 8]: -0.08%
- % Weight Change vs untreated dystrophic controls [2, 9]: -0.04%
- % Weight Change vs untreated dystrophic controls ([2]; Exp. 2, 40 mg/Kg i.p. daily, day 49-55): -0.04%
- % Weight Change vs untreated dystrophic controls [2, 10]: -0.05%
- % Weight Change vs untreated dystrophic controls [2, 11]: -0.01%
- Toxicity as evidenced by weight loss ([2]; Exp. 3, 70 mg/Kg): detectable toxicity as evidenced by weight loss, but this is still moderate
- % Weight Change vs untreated dystrophic controls ([2]; Exp. 3, 70 mg/Kg i.p. daily, day 7-13): 0%
- % Weight Change vs untreated dystrophic controls ([2]; Exp. 3, 70 mg/Kg i.p. daily, day 14-20): -2%
- % Weight Change vs untreated dystrophic controls [2, 12]: -3%
- % Weight Change vs untreated dystrophic controls [2, 13]: -9%
- Maximum Weight Loss ([2]; Table VII, oral 200 mg/Kg, 60 days): 3%
- Weight loss / toxic symptoms ([2]; initial single injection 100 mg/Kg, over 7 days): no weight loss over 7 days, nor any other toxic symptoms
- CPK [3, 14]: 478 mU/ml
- CPK, % change from control [3, 14]: -61%
- CPK [3, 15]: 4810 mU/ml
- CPK, % change from control [3, 15]: -40%
- CPK [3, 16]: 5412 mU/ml
- CPK, % change from control [3, 16]: -48%
- CPK [3, 17]: 13,540 mU/ml
- CPK, % change from control [3, 17]: -36%
- CPK [3, 18]: 651 mU/ml
- CPK, % change from control [3, 18]: -46%
- CPK [3, 19]: 4505 mU/ml
- CPK, % change from control [3, 19]: -44%
- CPK [3, 20]: 7629 mU/ml
- CPK, % change from control [3, 20]: -27%
- CPK [3, 21]: 24,248 mU/ml
- CPK, % change from control [3, 21]: +15%
- CPK [3, 22]: 651 mU/ml
- CPK, % change from control [3, 22]: -46%
- CPK [3, 23]: 6076 mU/ml
- CPK, % change from control [3, 23]: -24%
- CPK ([3]; 300 mg/Kg i.p. three times weekly for 30 days, day 56 ex ovo): 7944 mU/ml
- CPK [3, 24]: 16,602 mU/ml
- CPK, % change from control [3, 24]: -21%
- % CPK Change vs untreated dystrophic controls [3, 4]: -8%
- % CPK Change vs untreated dystrophic controls [3, 5]: -46%
- % CPK Change vs untreated dystrophic controls [3, 6]: -21%
- % CPK Change vs untreated dystrophic controls [3, 7]: -59%
- % CPK Change vs untreated dystrophic controls [3, 8]: -57%
- % CPK Change vs untreated dystrophic controls [3, 9]: -72%
- % CPK Change vs untreated dystrophic controls [3, 10]: -47%
- % CPK Change vs untreated dystrophic controls [3, 11]: -32%
- % CPK Change vs untreated dystrophic controls [3, 12]: -51%
- % CPK Change vs untreated dystrophic controls [3, 13]: -53%
- CPK [3, 25]: 3496 mU/ml
- CPK, % change from control [3, 25]: -31%
- CPK [3, 26]: 7336 mU/ml
- CPK, % change from control [3, 26]: -1%
- CPK [3, 27]: 9638 mU/ml
- CPK, % change from control [3, 27]: -18%
- CPK [3, 28]: 10,860 mU/ml
- CPK, % change from control [3, 28]: -24%
- Reduction in plasma CPK levels ([3]; oral 200 mg/Kg, 60 days): moderate reduction
- CPK [3, 29]: 3794 mU/ml
- CPK, % change from control [3, 29]: -23%
- CPK [3, 30]: 6690 mU/ml
- CPK, % change from control [3, 30]: -30%
- CPK [3, 31]: 4713 mU/ml
- CPK, % change from control [3, 31]: -18%
- CPK [3, 32]: 6483 mU/ml
- CPK, % change from control [3, 32]: -24%
- CPK [3, 33]: 17,975 mU/ml
- CPK, % change from control [3, 33]: +30%
- CPK [3, 34]: 2658 mU/ml
- CPK, % change from control [3, 34]: -53%
- CPK [3, 35]: 4712 mU/ml
- CPK, % change from control [3, 35]: -45%
- CPK [3, 36]: 9084 mU/ml
- CPK, % change from control [3, 36]: -34%
- CPK [3, 37]: 2217 mU/ml
- CPK, % change from control [3, 37]: -63%
- CPK [3, 38]: 4018 mU/ml
- CPK, % change from control [3, 38]: -68%
- Fatigue in flip test (normal chickens 412; 412D, day 25, 50 mg/Kg): did not fatigue
- Flip test outcome (normal chickens 412; normal drug injected chickens, 50 mg/Kg): able to pass the flip test
